Assay results: ChEMBL document CHEMBL4627333, “Addition of ethylamines to the phenols of bithionol and synthetic retinoids does not elicit activity in gram-negative bacteria” (2020)
Converted amounts (≈) assume the structure as drawn.

How the values were obtained:
Staphylococcus aureus [1] = assay: Membrane disrupting activity in methicillin-resistant Staphylococcus aureus BF1 assessed as antibacterial activity by measuring inhibition of bacterial growth by CLSI-based antimicrobial dilution susceptibility method
Klebsiella pneumoniae = assay: Membrane disrupting activity in Klebsiella pneumoniae WGLW2 assessed as antibacterial activity by measuring inhibition of bacterial growth by CLSI-based antimicrobial dilution susceptibility method; details: subsp. pneumoniae WGLW2
Staphylococcus aureus [2] = assay: Membrane disrupting activity in methicillin-resistant Staphylococcus aureus MW2 assessed as antibacterial activity by measuring inhibition of bacterial growth by CLSI-based antimicrobial dilution susceptibility method
Acinetobacter baumannii = assay: Membrane disrupting activity in Acinetobacter baumannii ATCC 17978 assessed as antibacterial activity by measuring inhibition of bacterial growth by CLSI-based antimicrobial dilution susceptibility method
Pseudomonas aeruginosa = assay: Membrane disrupting activity in Pseudomonas aeruginosa PA14 assessed as antibacterial activity by measuring inhibition of bacterial growth by CLSI-based antimicrobial dilution susceptibility method
Staphylococcus aureus [3] = assay: Membrane disrupting activity in methicillin-resistant Staphylococcus aureus BF3 assessed as antibacterial activity by measuring inhibition of bacterial growth by CLSI-based antimicrobial dilution susceptibility method
Staphylococcus aureus [4] = assay: Membrane disrupting activity in methicillin-resistant Staphylococcus aureus BF2 assessed as antibacterial activity by measuring inhibition of bacterial growth by CLSI-based antimicrobial dilution susceptibility method

| Compound | MIC (Staphylococcus aureus [1]) [mg/L] | MIC (Klebsiella pneumoniae) [mg/L] | MIC (Staphylococcus aureus [2]) [mg/L] | MIC (Acinetobacter baumannii) [mg/L] | MIC (Pseudomonas aeruginosa) [mg/L] | MIC (Staphylococcus aureus [3]) [mg/L] | MIC (Staphylococcus aureus [4]) [mg/L] |
| --- | --- | --- | --- | --- | --- | --- | --- |
| NCCOc1ccc(-c2ccc3cc(C(=O)O)ccc3c2)cc1C12CC3CC(CC(C3)C1)C2 | > 64 | > 64 | > 64 | > 64 | > 64 | > 64 | > 64 |
| NCCOc1c(Cl)cc(Cl)cc1Sc1cc(Cl)cc(Cl)c1OCCN | 64 (≈ 145 µM) | 64 (≈ 145 µM) | 64 (≈ 145 µM) | 64 (≈ 145 µM) | > 64 | 32 (≈ 72.4 µM) | 64 (≈ 145 µM) |
| NCCOc1cc(CO)cc2ccc(-c3ccc(O)c(C45CC6CC(CC(C6)C4)C5)c3)cc12 | 4 (≈ 9.02 µM) | > 64 | 4 (≈ 9.02 µM) | > 64 | > 64 | 4 (≈ 9.02 µM) | 4 (≈ 9.02 µM) |
| NCCOc1cc(C(=O)O)cc2ccc(-c3ccc(O)c(C45CC6CC(CC(C6)C4)C5)c3)cc12 | 8 (≈ 17.5 µM) | > 64 | 8 (≈ 17.5 µM) | > 64 | > 64 | 4 (≈ 8.74 µM) | 16 (≈ 35 µM) |
| NCCOc1ccc(-c2ccc3cc(CO)ccc3c2)cc1C12CC3CC(CC(C3)C1)C2 | > 64 | > 64 | > 64 | > 64 | > 64 | > 64 | > 64 |
| Oc1c(Cl)cc(Cl)cc1Sc1cc(Cl)cc(Cl)c1O [BITHIONOL] | 1 (≈ 2.81 µM) | 64 (≈ 180 µM) | 1 (≈ 2.81 µM) | 16 (≈ 44.9 µM) | 32 (≈ 89.9 µM) | 0.5 (≈ 1.4 µM) | 1 (≈ 2.81 µM) |
| O=C(O)c1ccc2cc(-c3ccc(O)c(C45CC6CC(CC(C6)C4)C5)c3)ccc2c1 [O-DEMETHYLATED ADAPALENE] | 2 (≈ 5.02 µM) | > 64 | 2 (≈ 5.02 µM) | > 64 | > 64 | 1 (≈ 2.51 µM) | 2 (≈ 5.02 µM) |
